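Interpolation was linear, between the two tested concentrations surrounding the appropriate level; five concentrations were tested over 48 hours in 96-well plates. TGI denotes the concentration required for complete inhibition of growth.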
Legend:
Assay in all cases: DTP human tumour cell line panel, 48 h
[1] = test system: SW-620 colon
[2] = test system: NCI-H226 lung
[3] = test system: NCI-H522 lung
[4] = test system: UACC-257 melanoma
[5] = test system: MCF7 breast
[6] = test system: K-562 leukemia
[7] = test system: SNB-19 CNS
[8] = test system: A498 renal
[9] = test system: PC-3 prostate
[10] = test system: SK-MEL-2 melanoma
[11] = test system: SF-268 CNS
[12] = test system: COLO 205 colon
[13] = test system: MDA-MB-231 breast
[14] = test system: MOLT-4 leukemia
[15] = test system: HCT-116 colon
[16] = test system: RXF 393 renal
[17] = test system: U251 CNS
[18] = test system: KM12 colon
[19] = test system: MDA-N
[20] = test system: HOP-92 NSCLC

SMILES | TGI [1] [µM] | TGI [2] [µM] | TGI [3] [µM] | TGI [4] [µM] | TGI [5] [µM] | TGI [6] [µM] | TGI [7] [µM] | TGI [8] [µM] | TGI [9] [µM] | TGI [10] [µM] | TGI [11] [µM] | TGI [12] [µM] | TGI [13] [µM] | TGI [14] [µM] | TGI [15] [µM] | TGI [16] [µM] | TGI [17] [µM] | TGI [18] [µM] | TGI [19] [µM] | TGI [20] [µM]
Cc1ccc(S(=O)(=O)N/N=C2\CCC3(O)CC2(C)CCC2C3CC2(C)C)cc1 (stereo not drawn) | > 100 | 89.5 | 52.9 | > 100 | > 100 | > 100 | > 100 | > 100 | 66.2 | 87.1 | > 100 | 46.5 | > 100 | > 100 | > 100 | > 100 | > 100 | > 100 | > 100 | > 100
CCOC(=O)/C(C(=S)NCc1ccccc1)=C(/N)N1CCCC1 | > 100 | > 100 | > 100 | > 100 | > 100 | > 100 | > 100 | > 100 | > 100 | > 100 | > 100 | > 100 | > 100 | > 100 | > 100 | > 100 | > 100 | > 100 | > 100 | > 100
Cc1nc2cc3ccccc3cc2[nH]c1=O | > 100 | > 100 | > 100 | > 100 | > 100 | > 100 | > 100 | > 100 | > 100 | > 100 | > 100 | > 100 | > 100 | > 100 | > 100 | > 100 | > 100 | > 100 | > 100 | 80.2
Nc1ncc(C=O)c(NCC2(CO)CCC2)n1 | > 100 | > 100 | > 100 | > 100 | > 100 | > 100 | – | > 100 | > 100 | > 100 | > 100 | > 100 | > 100 | > 100 | > 100 | > 100 | > 100 | > 100 | > 100 | 87.8
CCC1(CC)N=C(C(F)(F)F)c2cc(C(=O)C(F)(F)F)c3ccccc3c2N1 | > 100 | 20.9 | 11.1 | 33.9 | 27.4 | > 100 | > 100 | 35.3 | > 100 | 10.4 | 27 | 28.4 | 12.3 | – | 16.1 | 9.87 | 23.6 | > 100 | 15.7 | 10.2
O=C1CCC2c3ccccc3NCN12 (stereo not drawn) | > 100 | > 100 | > 100 | > 100 | > 100 | > 100 | > 100 | > 100 | > 100 | > 100 | > 100 | > 100 | > 100 | > 100 | > 100 | > 100 | > 100 | > 100 | > 100 | > 100
